Experimental data as given in patent publication US20240226288A1, “TRANSPLANT MATERIAL AND KIDNEY TRANSPLANT KIT” (THE JIKEI UNIVERSITY, priority 2021, published 2024).

Test: Monitoring of recipient monkeys by blood test during immunosuppressant administration
Assay type: in vivo, cynomolgus monkey
Conditions: blood test after start of administration
Experimental: Regarding the start day, the day of transplantation is represented by (0), and the preceding days are represented by the minus sign (−). Specifically, in the therapy, tacrolimus (0.02 mg/kg im×2/day; day −9 from start day), abatacept (50 mg/kg iv×1/week; day 7 from start day), and mycophenolate mofetil (40 mg/kg po×2/day; day −5 from start day) were used. The administration of methylprednisolone (10 mg/kg iv) was also carried out from day 0 from the start day, which was changed to oral administration (5 mg/kg) from the next day. […] Furthermore, thymoglobulin (10 mg/kg iv on day 3), rituximab (10 mg/kg iv on day 2), tocilizumab (10 mg/kg sc on day −1, 7, and 14), and etanercept (0.5 mg/kg sc on day 0, 3, 6, and 10) were administered. The concentrations of tacrolimus and mycophenolate mofetil in blood were measured twice a week, and the dose was appropriately adjusted based on the target trough level (TAC trough level: 15 to 20 ng/mL on day −9 to 2; 9 to 12 ng/ml from day 3, MMF trough level: 4 to 6 μg/mL).
The daily dietary status and activity of the recipient monkeys were monitored, and support was provided through supplementation as needed. Furthermore, the systemic condition of the monkeys was evaluated by the measurement of body weight. body temperature, and SpO2 as well as blood sampling conducted twice a week. […]

COc1c(C)c2c(c(O)c1C/C=C(\C)CCC(=O)OCCN1CCOCC1)C(=O)OC2 [MMF, Mycophenolate mofetil]
absorption: confirmed
